Laboratory results taken from US9980963B2, “Treatment of cancer with dihydropyrazino-pyrazines” (Signal Pharmaceuticals, LLC, priority 2013, dated 2018).
“Also recorded” adds a separate entry of the source.

Tests used:
Assay type in all cases: cell-based, human
Wildtype CLL cells = test: Compound toxicity assay for CLL patient cells (wildtype); conditions: FIG. 1A; for sensitivity of wildtype CLL cells to the compound: single agent, feeder layer of CD40 ligand-expressing NIH 3T3 cells
del(11q) CLL cells = test: Compound toxicity assay for CLL patient cells (del(11q)); conditions: single agent; feeder layer of CD40 ligand-expressing NIH 3T3 cells; FIG. 1B
IGVH mutated CLL cells = test: CLL patient cells apoptosis assay (DioC6/PI); conditions: 48 hours; FIGS. 2A, E
Source text: (§1) CLL Patient Cells Apoptosis Assay. Patient material ([…] blood) was obtained from CLL patients (diagnosed according to the NCI-WG guidelines) after routine follow-up or diagnostic procedures at the department of hematology of the Academic Medical Center Amsterdam. Peripheral blood mononuclear cells (PBMCs) were isolated by Ficoll density gradient centrifugation and stored in liquid nitrogen, as cell suspension in heat-inactivated fetal calf serum containing 10% DMSO. During all in vitro experiments, cells were maintained in culture medium: Iscove's modified Dulbecco medium supplemented with 10% heat-inactivated FCS, 100 U/mL penicillin, […] gentamycin and 0.00036% β-mercaptoethanol. All samples contained at least 90% CD5+/CD19+ cells as assessed via flow cytometry. B-CLL cells were thawed and diluted to a concentration of 1.10^6 cells/mL in IMDM plus supplements as described above. […] Apoptosis was analyzed by evaluation of mitochondrial membrane potential with DioC6 (Molecular probes). Cells were incubated with 10 nM DioC6 for 30 minutes at 37° C. and 20 μg/mL propidium iodide was added to measure cell death. Expression of DioC6 was determined using the FACSCalibur flow cytometer and CellQuest software was used for data acquisition. Data were analyzed with FlowJo software (TreeStar, San Carlos, Calif., USA).

IGVH unmutated CLL cells = test: CLL patient cells apoptosis assay (DioC6/PI); conditions: 48 hours; FIGS. 2B, F
Source text: as §1

P53 mutated CLL cells = test: CLL patient cells apoptosis assay (DioC6/PI); conditions: 48 hours, FIGS. 2C
Source text: as §1

ATM mutated CLL cells = test: CLL patient cells apoptosis assay (DioC6/PI); conditions: 48 hours; FIGS. 2D, G
Source text: Patient material (pheripheral blood) was obtained from CLL patients (diagnosed according to the NCI-WG guidelines) after routine follow-up or diagnostic procedures at the department of hematology of the Academic Medical Center Amsterdam. Peripheral blood mononuclear cells (PBMCs) were isolated by Ficoll density gradient centrifugation and stored in liquid nitrogen, as cell suspension in heat-inactivated fetal calf serum containing 10% DMSO. During all in vitro experiments, cells were maintained in culture medium: Iscove's modified Dulbecco medium supplemented with 10% heat-inactivated FCS, 100 U/mL penicillin, 100 m/mL gentamycin and 0.00036% β-mercaptoethanol. All samples contained at least 90% CD5+/CD19+ cells as assessed via flow cytometry. […] Apoptosis was analyzed by evaluation of mitochondrial membrane potential with DioC6 (Molecular probes). Cells were incubated with 10 nM DioC6 for 30 minutes at 37° C. and 20 μg/mL propidium iodide was added to measure cell death. Expression of DioC6 was determined using the FACSCalibur flow cytometer and CellQuest software was used for data acquisition.

CLL cells [1] = test: Detection of apoptosis with QvD or NAC co-treatment (DiOC6/PI); conditions: 5 mM NAC, 48 hours
Procedure: Apoptosis levels were measured by Flow using DiOC6/PI staining and specific apoptosis was calculated. Results are shown as mean±SEM.
Where indicated, CLL cells were co-cultured in the presence/absence of 20 μM of the pancaspase inhibitor QvD or 5 mM N-acetyl-L-cysteine (NAC). CLL cell viability was measured by analysis of mitochondrial transmembrane potential by 3,3-dihexyloxocarbocyanine iodine (DiOC6; Invitrogen/Molecular Probes) and cell membrane permeability to propidium iodide (PI; Sigma Aldrich) using the FACS Calibur flow cytometer. Specific apoptosis is defined as [% cell death in drug treated cells]−[% cell death in medium control]/[% viable cells medium control]×100 using the Graphpad Prism software (Graphpad Prism 5.0, La Jolla, USA).

[2] = system: mRNA of pro-/anti-apoptotic mediators in CLL cells; test: RT-MLPA of pro- and anti-apoptotic regulators; conditions: 1 μM, 24 hours
Procedure: Reverse Transcription-Multiplex Ligation-Dependent Probe Amplification Assay.
CLL Cells were harvested per stimulation, washed with PBS, resuspended in RNA lysis buffer (Qiagen, Venlo, the Netherlands) and stored at −80° C. RNA was isolated using the GenElute Mammalian Total RNA Miniprep kit (Sigma-aldrich). The concentration and purity of the RNA were determined with a NanoDrop spectrophotometer ND-1000 (NanoDrop Technologies, Willington, USA). Reverse transcription-multiplex ligation-dependent probe amplification assay (RT-MLPA) procedure was performed as described previously by Eldering et al. Nucleic Acids Res. 2003; 31:e153. In brief, 40-60 ng of total RNA of samples were first reverse transcribed using a gene-specific probe mix (R016-X2). The resulting cDNA was annealed overnight at 60° C. to the MLPA probes. The annealed oligonucleotides were covalently linked by Ligase-65 (MRC, Amsterdam, the Netherlands) at 54° C. […] Results were analyzed using the programs Genescan analysis and Genotypes (Applied Biosystems). Data was further analyzed with Microsoft Excel Spreadsheet software. Normalization was performed by setting the sum of all data per sample at 100% and individual peaks were calculated relative to the 100% value.

primary CLL cells = test: BCR-mediated adhesion of primary CLL cells to fibronectin; conditions: 1 μM pretreatment; IgVH unmutated samples; n=5
Procedure: Graphs are presented as normalized mean±SEM (100%=stimulated cells without inhibitors). *0.01≤P<0.05; **0.001≤P<0.01 (paired one sample T test) (n=5). BCR-mediated adhesion of primary CLL cells (FIG. 4) was tested.

phospho-S6 = test: Western blot of mTOR pathway, unstimulated CLL cells; conditions: 1 μM, 2 hours
Procedure: (§2) Protein lysates were probed for phospho-S6 and actin for loading control. Blots from three representative CLL samples are shown, of a total of five analyzed. […] Blots were probed for p-Akt(Thr308), p-Akt (Ser473), p-S6, p-4EBP1 and actin for loading control. Blots from two representative CLL samples shown, of a total of four analyzed.
(§3) Western blot analysis was performed using standard techniques [Hallaert et al. Blood 2008(112):5141-5149]. Samples (50 μg protein) were separated by 13% SDS-PAGE gel electrophoresis. Membranes were probed with anti-p-S6, p-4EBP1, p-Akt (Thr308), p-Akt (Ser473) (Cell Signaling), Bim (Stressgen Bioreagents Canada) and antiserum to β-actin (Santa Cruz Biotechnology) as loading control. Blots were subsequently incubated with IRDye 680 or 800 labelled secondary antibodies for 1 hour. Odyssey Imager (Li-Cor Biosciences) was used as a detection method according to the manufacturer's protocol. For the p-DNA-PK western blot, cells were lysed in RIPA sample buffer and sonificated. Samples (50 μg protein) were separated by mini protean TGX gels (Biorad). Transfer onto Immobilon-FL transfer membrane (Millipore) in 1× transfer buffer, 20% MeOH at 30 volts at 4° C. overnight. The following antibodies were used: p-DNA-PK (Ser2056) (Abcam), KAP (TIF1β), phosphorylated-KAP (phospho-TIF1β-ser824; Cell Signalling) and β-actin (Santa Cruz).

[3] = system: p-S6, p-4EBP1, p-Akt (Ser473); test: Western blot of mTOR pathway, CD40L-activated CLL cells; conditions: 100, 500 or 1000 nM, 72 hours
Procedure: as §2, §3

CLL cells [4] = test: Blast cell formation of CD40L-cocultured CLL cells (FACS); conditions: CD40L coculture; 1 μM, 3 days
Procedure: FIG. 6A and FIG. 6B) Blast cell formation was assessed by FACS analysis and results are shown as mean±SEM. *0.01≤P<0.05; **0.001≤P<0.01; ***P<0.001 (paired one sample T test) FIG. 6C) CLL cells were examined for surface expression of CD95 (Fas), CD44, CD54 (ICAM) and CD58 (LFA-3) by flow cytometry. Results are shown as mean±SEM (n=6).

[5] = system: CD95, CD54, CD58, CD44 on CLL cells; test: Expression of cell surface markers (flow cytometry); conditions: CD40L coculture; 1 μM, 3 days
Procedure: Expression of Cell Surface Markers.
Cells were washed and resuspended in staining media (phosphate-buffered saline (PBS) containing 0.5% (wt/vol) bovine serum albumin (BSA)). For analysis of expression of cell surface markers, different combinations of antibodies were used. CD54-PE and CD95-FITC purchased from Pharmingen. CD44-Alexa Fluor 700 was obtained from eBiosciences and CD58 from Immunotech. After incubation for 30 minutes at 4° C. protected from light, cells were washed twice in PBS/0.5% BSA and expression of cell surface markers was analyzed using FACSCalibur flow cytometry.

CLL cells [6] = test: CD40L coculture survival and fludarabine sensitivity assay (DiOC6/PI)
Procedure: (§4) FIG. 7A) Apoptosis was assessed by DiOC6/PI staining and results are shown as mean±SEM (n=7). *0.01≤P<0.05; **0.001≤P<<0.01; ***P<0.001 (paired T test). FIG. 7B) After 3 days, fludarabine sensitivity assay was performed. Apoptosis was assessed by DiOC6/PI staining and specific apoptosis are shown as mean±SEM (n=7). *0.01≤P<0.05; **0.001≤P<0.01 (paired T test) FIG. 7C) mRNA levels of pro-/anti-apoptotic mediators in CLL cells were measured by RT-MLPA (n=6). FIG. 7D) Protein lysates were probed for Bim and actin for loading control. Blots from two representative CLL samples shown, of a total of four analyzed.
CD40 stimulation inhibits spontaneous cell death as previously reported [Burger et al. Blood 2009(114):2560-2561]. Lymphocytes of CLL patients were stimulated by coculture with NIH3T3 fibroblasts stably transfected with human CD40L or negative control plasmid (3T3) as described before [Pascutti et al Blood 2013 2013; 122(17):3010-9]. […] After 72 hours of culture, CLL cells were detached and either used for flowcytrometic analyses or subsequently incubated with or without Fludarabine (Sigma) for an additional 48 hours. CLL cell viability was measured as by DiOC6/PI staining as described above. […] CD40L stimulation induces resistance to cytotoxic agents, including fludarabine [Kater et al. Brit J Haematology 2004; 127:404-415].

BIM and BID mRNA = test: RT-MLPA in CD40L triggered CLL cells; conditions: 1 μM, 3 days
Procedure: as §4

Bim = Bim protein Western blot in CD40L-cocultured CLL cells; conditions: CD40L coculture; 1 μM, 3 days
Procedure: as §4
as §3, with “Transfer onto Immobilon-FL transfer membrane (Millipore) in 1× transfer buffer, 20% MeOH at 30 volts at 4° C. overnight. The following antibodies were used: p-DNA-PK (Ser2056) (Abcam), KAP (TIF1β), phosphorylated-KAP (phospho-TIF1β-ser824; Cell Signalling) and β-actin (Santa Cruz).” left out

CLL cells [7] = test: CFSE proliferation assay of CLL cells on 3T40L cells with IL-21; conditions: CD40L + IL-21 (25 ng/ml); 1 μM, 4 days
Procedure: After 4 days, CFSE was measured by FACS. […] FIG. 8B) Division index was calculated with FlowJo program. […] PBMC (1.0×10^7/mL) were labelled with 0.5 μM carboxyfluorescein diacetate succinimidyl ester (CFSE, Molecular Probes) as described before [Pascutti et al Blood 2013 2013; 122(17):3010-9]. […] After 4 days, proliferation was assessed in a FACS Canto (BD Biosciences) and analyzed with FlowJosoftware (TreeStar, Ashland, Oreg.).

## CCN1C(=O)CNc2ncc(-c3ccc(-c4nc[nH]n4)nc3C)nc21 [Compound 1, 1-ethyl-7-(2-methyl-6-(1H-1,2,4-triazol-3-yl)pyridin-3-yl)-3,4-dihydropyrazino[2,3-b]pyrazin-2(1H)-one]
Wildtype CLL cells; combination with etoposide, ATM-proficient CLL cells
  enhancement of response by addition of Compound 1 to the etoposide regimen: did not significantly enhance
Wildtype CLL cells
  sensitivity of wildtype CLL cells to the compound: resistant
del(11q) CLL cells
  sensitivity of del(11q) CLL cells to the compound: exclusively sensitive
IGVH mutated CLL cells
  induction of apoptosis: induced apoptosis
IGVH unmutated CLL cells
  induction of apoptosis: induced apoptosis
P53 mutated CLL cells
  induction of apoptosis: induced apoptosis
ATM mutated CLL cells
  induction of apoptosis: induced apoptosis
CLL cells [1]
  ROS dependence of cell death: effect of NAC co-treatment on cell death: did not result in inhibition
[2]
  levels of pro- and anti-apoptotic regulators on RNA level, including p53-target genes: not altered
Primary CLL cells
  anti-IgM-stimulated integrin-mediated adhesion to fibronectin: strongly inhibited
phospho-S6
  phosphorylation of S6: completely blocked
[3]
  p-4EBP1 upregulation: completely blocked
  p-Akt (Ser473) upregulation: completely blocked
  p-S6 upregulation: completely blocked
CLL cells [4]
  blast-like appearance / blast cell formation: completely blocked
[5]
  3T40L-induced upregulation of immune accessory molecules (CD95, CD54, CD58, CD44): significant inhibition
CLL cells [6]; 72 hours CD40L coculture, then fludarabine 48 hours
  fludarabine sensitivity: partly reversed
CLL cells [6]; CD40L coculture, 1 μM, 3 days
  CD40L-induced survival: inhibited
CLL cells [6]; co-treatment with Compound 1 during CD40L coculture, then fludarabine 48 hours
  CD40-induced fludarabine resistance: completely abolished
BIM and BID mRNA
  CD40-mediated inhibition of BIM (RNA): blocked
  upregulation of BID (RNA): decreased
Bim
  CD40-mediated decreased expression of Bim protein: blocked
CLL cells [7]
  proliferation of CLL cells: completely blocks; also recorded: fully blocked

## COc1cc([C@@H]2c3cc4c(cc3[C@@H](O[C@@H]3O[C@@H]5CO[C@@H](C)O[C@H]5[C@H](O)[C@H]3O)[C@H]3COC(=O)[C@H]23)OCO4)cc(OC)c1O [etoposide, reference compound]
Wildtype CLL cells
  sensitivity of wildtype CLL cells to the compound: highly sensitive
del(11q) CLL cells
  sensitivity of del(11q) CLL cells to the compound: largely resistant
